Measured values: US20090221642A1, “MUSCARINIC RECEPTOR AGONISTS, COMPOSITIONS, METHODS OF TREATMENT THEREOF, AND PROCESSES FOR PREPARATION THEREOF-176” (AstraZeneca AB, priority 2008, published 2009)

How the values were obtained:
[1] = molecular target: T1, hM1 (human Muscarinic receptor subtype 1) (Homo sapiens, UniProt P11229); test: Human M1 calcium mobilization FLIPR assay; format: cell-based; conditions: hM1 expressed in CHO cells, intracellular Ca2+ release, read-out: hM1 EC50
T1 construct: expressed in transfected cells; host or cells: CHO cells (Chinese hamster ovary cells, ATCC)
T1 sequence (P11229 1-460): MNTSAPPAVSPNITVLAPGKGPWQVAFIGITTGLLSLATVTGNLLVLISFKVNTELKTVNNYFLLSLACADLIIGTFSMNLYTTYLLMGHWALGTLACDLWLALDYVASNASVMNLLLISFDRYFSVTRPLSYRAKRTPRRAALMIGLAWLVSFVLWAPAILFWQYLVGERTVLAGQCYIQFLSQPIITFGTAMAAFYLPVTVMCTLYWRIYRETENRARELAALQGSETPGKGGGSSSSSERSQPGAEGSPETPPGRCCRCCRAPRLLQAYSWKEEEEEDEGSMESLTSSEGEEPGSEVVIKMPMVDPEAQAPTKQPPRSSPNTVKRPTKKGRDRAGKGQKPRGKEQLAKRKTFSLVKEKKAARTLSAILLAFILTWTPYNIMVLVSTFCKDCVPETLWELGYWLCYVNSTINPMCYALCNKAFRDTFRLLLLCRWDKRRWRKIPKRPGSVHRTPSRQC
Procedure, shortened: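 CHO cells expressing the receptor, dye-loaded at 37°C for 60 min, read on FLIPR at 510-570 nm. Agonism taken from compound-induced Ca2+ rise (max RFU for M1); M3/M5 inhibition measured against 2 nM acetylcholine using max minus min RFU. 10-point threefold dilutions, sigmoidal fits.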

[2] = molecular target: T2, cloned human M4 receptor (human Muscarinic receptor subtype 4) (Homo sapiens, UniProt P08173); test: hM4 receptor GTPγS binding; format: biochemical; conditions: CHO cell membranes expressing hM4; [35S]GTPγS binding; read-out: hM4 EC50
T2 construct: purchased Perkin-Elmer RBHM4M; host or cells: Chinese hamster ovary cells (CHO) membranes
T2 sequence (P08173 1-479): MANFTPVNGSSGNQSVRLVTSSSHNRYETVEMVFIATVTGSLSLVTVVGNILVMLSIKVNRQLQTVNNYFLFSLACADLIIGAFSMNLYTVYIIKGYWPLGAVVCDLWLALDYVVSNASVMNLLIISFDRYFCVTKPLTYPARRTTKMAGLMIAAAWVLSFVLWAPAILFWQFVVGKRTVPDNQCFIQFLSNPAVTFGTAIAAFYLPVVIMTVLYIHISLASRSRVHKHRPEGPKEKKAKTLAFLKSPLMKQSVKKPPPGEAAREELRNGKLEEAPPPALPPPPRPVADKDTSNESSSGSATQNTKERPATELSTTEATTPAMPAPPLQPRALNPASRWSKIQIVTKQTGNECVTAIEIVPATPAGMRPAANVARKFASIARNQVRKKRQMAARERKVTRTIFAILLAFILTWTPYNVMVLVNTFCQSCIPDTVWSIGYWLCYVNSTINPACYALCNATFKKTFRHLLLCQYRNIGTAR
Protocol: hM4 Receptor GTPγS Binding
Membranes produced from Chinese hamster ovary cells (CHO) expressing the cloned human M4 receptor (human Muscarinic receptor subtype 4, gene bank access NM_000741), are obtained from Perkin-Elmer (RBHM4M). The membranes are thawed at 37° C., passed 3 times through a 23-gauge blunt-end needle, diluted in the GTPγS binding buffer (50 mM Hepes, 20 mM NaOH, 100 mM NaCl, 1 mM EDTA, 5 mM MgCl2, pH 7.4, 100 μM DTT). The EC50, IC50 and Emax of the compounds of the invention are evaluated from 10-point dose-response curves (three fold concentration range) done in 60 μl in 384-well non-specific binding surface plate (Corning). Ten microliters from the dose-response curves plate (5× concentration) are transferred to another 384 well plate containing 25 μl of the following: 10 μg of hM4 membranes, 500 μg of Flashblue beads (Perkin-Elmer) and GDP 40 μM. An additional 15 μl containing 3.3× (60,000 dpm) of GTPγ^35S (0.4 nM final) are added to the wells resulting in a total well volume of 50 μl. Basal and maximal stimulated [^35S]GTPγS binding are determined in absence and presence of 30 μM final of acetylcholine agonist. The membranes/beads mix are pre-incubated for 15 minutes at room temperature with 40 μM GDP prior to distribution in plates (20 μM final). The reversal of acetylcholine-induced stimulation (10 μM final) of [^35S]GTPγS binding is used to assay the antagonist properties (IC50) of the compounds. The plates are incubated for 60 minutes at room temperature then centrifuged at 400 rpm for 5 minutes. The radioactivity (cpm) is counted in a Trilux (Perkin-Elmer).
Values of EC50, IC50 and Emax are obtained using sigmoidal fits of a non-linear curve-fitting program (XLfit version 4.2.2 Excel add-in version 4.2.2 build 18 math 1Q version 2.1.2 build 18) of percent stimulated [^35S]GTPγS binding vs. log(molar ligand). All pEC50 and plC50 values are reported as arithmetic means ±standard error of mean of ‘n’ independent experiments.

| SMILES | EC50 [1] | EC50 [2] |
| --- | --- | --- |
| CC1(N2CCC(n3c(=O)[nH]c4ccc(F)cc43)CC2)CCN(C(=O)OCCF)C1 (single isomer, unassigned) [Example 53, 2-fluoroethyl 3-(4-(6-fluoro-2-oxo-2,3-dihydro-1H-benzo[d]imidazol-1-yl)piperidin-1-yl)-3-methylpyrrolidine-1-carboxylate] | 0.0115 µM | 5.57 µM |
| CCOC(=O)N1CCC(C)(N2CCC(n3c(=O)[nH]c4cc(F)c(C)cc43)CC2)C1 (single isomer, unassigned) [Example 55, ethyl 3-(4-(5-fluoro-6-methyl-2-oxo-2,3-dihydro-1H-benzo[d]imidazol-1-yl)piperidin-1-yl)-3-methylpyrrolidine-1-carboxylate] | 0.0049 µM | 1.71 µM |
| CCOC(=O)N1CCC(C)(N2CCC(n3c(=O)[nH]c4cc(F)c(C)cc43)CC2)C1 (single isomer, unassigned) [Example 56, ethyl 3-(4-(5-fluoro-6-methyl-2-oxo-2,3-dihydro-1H-benzo[d]imidazol-1-yl)piperidin-1-yl)-3-methylpyrrolidine-1-carboxylate] | 0.0035 µM | 0.238 µM |
| CCOC(=O)N1CCC(C)(N2CCC(n3c(=O)[nH]c4cc(F)c(F)cc43)CC2)C1 (single isomer, unassigned) [Example 57, ethyl 3-(4-(5,6-difluoro-2-oxo-2,3-dihydro-1H-benzo[d]imidazol-1-yl)piperidin-1-yl)-3-methylpyrrolidine-1-carboxylate] | 0.0026 µM | 2.2 µM |
| CCOC(=O)N1CCC(C)(N2CCC(n3c(=O)[nH]c4cc(F)c(F)cc43)CC2)C1 (single isomer, unassigned) [Example 58, ethyl 3-(4-(5,6-difluoro-2-oxo-2,3-dihydro-1H-benzo[d]imidazol-1-yl)piperidin-1-yl)-3-methylpyrrolidine-1-carboxylate] | 0.0177 µM | 9.81 µM |
| COC(=O)N1CCC(C)(N2CCC(n3c(=O)[nH]c4cc(F)c(F)cc43)CC2)C1 (single isomer, unassigned) [Example 60, methyl 3-(4-(5,6-difluoro-2-oxo-2,3-dihydro-1H-benzo[d]imidazol-1-yl)piperidin-1-yl)-3-methylpyrrolidine-1-carboxylate] | 0.0135 µM | 5.08 µM |
| CC1(N2CCC(n3c(=O)[nH]c4cc(F)c(F)cc43)CC2)CCN(C(=O)OCCF)C1 (single isomer, unassigned) [Example 61, 2-fluoroethyl 3-(4-(5,6-difluoro-2-oxo-2,3-dihydro-1H-benzo[d]imidazol-1-yl)piperidin-1-yl)-3-methylpyrrolidine-1-carboxylate] | 0.0141 µM | 4.42 µM |
| COC(=O)N1CCC(C)(N2CCC(N3C(=O)Cc4ccc(C)cc43)CC2)C1 (single isomer, unassigned) [Example 67, methyl 3-methyl-3-(4-(6-methyl-2-oxoindolin-1-yl)piperidin-1-yl)pyrrolidine-1-carboxylate] | 0.0209 µM | 15.1 µM |
| COC(=O)N1CCC(C)(N2CCC(N3C(=O)Cc4ccc(C)cc43)CC2)C1 (single isomer, unassigned) [Example 68, methyl 3-methyl-3-(4-(6-methyl-2-oxoindolin-1-yl)piperidin-1-yl)pyrrolidine-1-carboxylate] | 0.0133 µM | 6.21 µM |
| CCOC(=O)N1CCC(C)(N2CCC(N3C(=O)Cc4ccc(C)cc43)CC2)C1 (single isomer, unassigned) [Example 69, ethyl 3-methyl-3-(4-(6-methyl-2-oxoindolin-1-yl)piperidin-1-yl)pyrrolidine-1-carboxylate] | 0.011 µM | 8.92 µM |
| CCOC(=O)N1CCC(C)(N2CCC(N3C(=O)Cc4ccc(C)cc43)CC2)C1 (single isomer, unassigned) [Example 70, ethyl 3-methyl-3-(4-(6-methyl-2-oxoindolin-1-yl)piperidin-1-yl)pyrrolidine-1-carboxylate] | 0.0098 µM | 1.77 µM |
| CCOC(=O)N1CCC(C)(N2CCC(N3C(=O)Cc4ccccc43)CC2)C1 (single isomer, unassigned) [Example 72, ethyl 3-methyl-3-(4-(2-oxoindolin-1-yl)piperidin-1-yl)pyrrolidine-1-carboxylate] | 0.0095 µM | > 90 µM |
| CCOC(=O)N1CCC(C)(N2CCC(N3C(=O)Cc4ccccc43)CC2)C1 (single isomer, unassigned) [Example 73, ethyl 3-methyl-3-(4-(2-oxoindolin-1-yl)piperidin-1-yl)pyrrolidine-1-carboxylate] | 0.031 µM | > 90 µM |
| CCOC(=O)N1CCC(C)(N2CCC(N3C(=O)Cc4ccc(F)cc43)CC2)C1 (single isomer, unassigned) [Example 74, ethyl 3-(4-(6-fluoro-2-oxoindolin-1-yl)piperidin-1-yl)-3-methylpyrrolidine-1-carboxylate] | 0.01 µM | 3.6 µM |
| CCOC(=O)N1CCC(C)(N2CCC(N3C(=O)Cc4ccc(F)cc43)CC2)C1 (single isomer, unassigned) [Example 75, ethyl 3-(4-(6-fluoro-2-oxoindolin-1-yl)piperidin-1-yl)-3-methylpyrrolidine-1-carboxylate] | 0.0475 µM | > 18.9 µM |
| COC(=O)N1CCC(C)(N2CCC(N3C(=O)Cc4ccc(F)cc43)CC2)C1 (single isomer, unassigned) [Example 76, methyl 3-(4-(6-fluoro-2-oxoindolin-1-yl)piperidin-1-yl)-3-methylpyrrolidine-1-carboxylate] | 0.0401 µM | > 90 µM |
| CCOC(=O)N1CCC(C)(N2CCC(N3C(=O)Cc4cc(F)ccc43)CC2)C1 (single isomer, unassigned) [Example 79, ethyl 3-(4-(5-fluoro-2-oxoindolin-1-yl)piperidin-1-yl)-3-methylpyrrolidine-1-carboxylate] | 0.0092 µM | 4.33 µM |
| CCOC(=O)N1CCC(C)(N2CCC(N3C(=O)Cc4cc(F)ccc43)CC2)C1 (single isomer, unassigned) [Example 80, ethyl 3-(4-(5-fluoro-2-oxoindolin-1-yl)piperidin-1-yl)-3-methylpyrrolidine-1-carboxylate] | 0.0694 µM | > 21.8 µM |
| CCOC(=O)N1CCC(C)(N2CCC(N3C(=O)Cc4cc(F)c(C)cc43)CC2)C1 (single isomer, unassigned) [Example 81, ethyl 3-(4-(5-fluoro-6-methyl-2-oxoindolin-1-yl)piperidin-1-yl)-3-methylpyrrolidine-1-carboxylate] | 0.0087 µM | 7.07 µM |
| CCOC(=O)N1CCC(C)(N2CCC(N3C(=O)Cc4cc(F)c(C)cc43)CC2)C1 (single isomer, unassigned) [Example 82, ethyl 3-(4-(5-fluoro-6-methyl-2-oxoindolin-1-yl)piperidin-1-yl)-3-methylpyrrolidine-1-carboxylate] | 0.0087 µM | 0.937 µM |
